Reference: ChEMBL document CHEMBL1649383, “Mode of action of epoxyphomalins A and B and characterization of related metabolites from the marine-derived fungus Paraconiothyrium sp” (J Nat Prod, 2010)

What was measured:
Homo sapiens [1] = species on record: Homo sapiens; experiment: Inhibition of chymotrypsin like activity of human erythrocyte-derived 20S proteasome after 60 mins by fluorescence assay
Homo sapiens [2] = species on record: Homo sapiens; experiment: Inhibition of caspase like activity of human erythrocyte-derived 20S proteasome after 60 mins by fluorescence assay
Homo sapiens [3] = species on record: Homo sapiens; experiment: Inhibition of trypsin like activity of human erythrocyte-derived 20S proteasome after 60 mins by fluorescence assay

Measured: Activity

CC1=CC[C@H]2[C@](C)(CO)CCC[C@]2(C)[C@H]1C[C@@]12O[C@@H]1C(=O)C(CO)=C[C@H]2O
active: Homo sapiens [1] Dose-dependent effect | Homo sapiens [2] Dose-dependent effect | Homo sapiens [3] Dose-dependent effect

CC1=C[C@@H](O)[C@]2(C[C@H]3C(C)=CC[C@H]4[C@](C)(CO)CCC[C@]34C)O[C@@H]2C1=O
active: Homo sapiens [1] Dose-dependent effect | Homo sapiens [2] Dose-dependent effect | Homo sapiens [3] Dose-dependent effect
